Source: patent US4767718A, “Fluorescent opioid reagents and methods of use thereof in the detection of opioid receptors” (Southern Illinois University Foundation, priority 1984, dated 1988)
Entries after “also recorded” stand apart in the source; their conditions may differ. Read-outs that look alike come from different tables or passages of the source.

Tests used:
[1] = test system: guinea pig ileum longitudinal muscle; assay: electrically stimulated guinea pig ileum longitudinal muscle preparation; conditions: for persistence of antagonist effect on washing of ileum: after washing
Experimental: 6-FN was tested for activity on an electrically stimulated guinea pig ileum longitudinal muscle preparation. In this test, a specimen of guinea pig ileum was stretched between two wires in a nutrient solution (2.5 mil.) and stimulated supramaximally at 0.1 Hz. In the absence of opioid agonists and antagonists electrical stimulation of the muscle results in contraction.

[2] = fluorescence and absorption properties; format: physicochemical; conditions: for emission maximum / excitation maximum: pH 7 phosphate buffer, 10^-6 M solution
Experimental: The container was wrapped in aluminium foil. Thereafter, portions of ethyl alcohol and water were added to the reaction mixture.

[3] = target: T1, opioid receptor (rat brain synaptosomal plasma membranes) (Rattus norvegicus, UniProt P33535); assay: displacement of ^3H-dihydromorphine (^3H-DHM) from rat brain synaptosomal plasma membranes; format: binding; conditions: for Hill coefficient: ^3H-DHM displacement; for binding activity for use in detection and quantification of receptor sites: synaptosomal membranes, in words
T1 construct: from rat brain synaptosomal plasma membranes; from tissue; host or cells: rat brain synaptosomal plasma membranes

[4] = target: T2, opioid receptor sites, ^3H-DHM indicator ligand (Rattus norvegicus, UniProt P33535); assay: site selectivity analysis (Terenius and Wahlstrom), displacement of labeled ^3H-DHM in presence of cold DALE; format: binding
T2 construct: from rat brain synaptosomal plasma membranes; from tissue; host or cells: rat brain synaptosomal plasma membranes (inferred from the sister test; b86 says only 'a substrate')
From the text: (§1) In FIG. 1 it will be noted that compounds which displace the two indicator ligands differently provide a curve which is convex towards the axis of the labeled indicator ligand which is less favorably displaced.

[5] = target: T3, opioid receptor sites, ^3H-DALE indicator ligand (Rattus norvegicus, UniProt P33533); assay: site selectivity analysis (Terenius and Wahlstrom), displacement of labeled ^3H-DALE in presence of cold DHM; format: binding
T3 construct: from rat brain synaptosomal plasma membranes; from tissue; host or cells: rat brain synaptosomal plasma membranes (inferred from the sister test; b86 says only 'a substrate')
From the text: as §1

[6] = hygroscopicity of sample submitted for elemental analysis; format: physicochemical
[7] = determined graphically, rat brain synaptosomal plasma membranes

T1 sequence (P33535 whole entry): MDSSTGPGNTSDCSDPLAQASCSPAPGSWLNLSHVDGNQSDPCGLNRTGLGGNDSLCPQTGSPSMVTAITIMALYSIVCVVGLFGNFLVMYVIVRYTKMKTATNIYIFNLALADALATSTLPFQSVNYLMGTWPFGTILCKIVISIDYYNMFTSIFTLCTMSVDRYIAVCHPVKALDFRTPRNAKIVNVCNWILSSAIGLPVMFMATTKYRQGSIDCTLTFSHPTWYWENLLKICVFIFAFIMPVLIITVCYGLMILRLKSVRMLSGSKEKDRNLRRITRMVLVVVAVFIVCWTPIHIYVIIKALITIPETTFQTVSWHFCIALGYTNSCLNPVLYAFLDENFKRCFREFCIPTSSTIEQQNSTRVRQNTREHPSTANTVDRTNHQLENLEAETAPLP
T2 sequence (P33535 whole entry): as above
T3 sequence (P33533 whole entry): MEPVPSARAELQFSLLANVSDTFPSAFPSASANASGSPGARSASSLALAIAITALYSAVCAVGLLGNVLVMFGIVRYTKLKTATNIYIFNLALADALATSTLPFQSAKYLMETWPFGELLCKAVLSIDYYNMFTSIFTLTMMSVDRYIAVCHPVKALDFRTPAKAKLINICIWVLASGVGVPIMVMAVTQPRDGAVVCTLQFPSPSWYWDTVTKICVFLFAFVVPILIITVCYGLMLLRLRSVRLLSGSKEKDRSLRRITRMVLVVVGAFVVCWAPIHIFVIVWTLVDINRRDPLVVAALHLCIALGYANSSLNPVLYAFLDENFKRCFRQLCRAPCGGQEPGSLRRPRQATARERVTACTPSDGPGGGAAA

In the case of C=CCN1CC[C@]23c4c5ccc(O)c4O[C@H]2C(=NNC(=S)Nc2ccc4c(c2)C(=O)OC42c4ccc(O)cc4Oc4cc(O)ccc42)CC[C@@]3(O)[C@H]1C5 [6-FN, 1-(N)-Fluoresceinyl Naloxone Thiosemicarbazone], the “agonist activity of 6-FN” value ([1]; 10^-6 M 6-FN, FIG. 2) is reported as “slight agonist effect; also recorded: partial agonist activity”, the “persistence of antagonist effect on washing of ileum” value [1] is reported as “did not readily eliminate the antagonist effect” and the “antagonist effect with respect to normorphine” value ([1]; final 6-FN concentration 10^-7 M, prior to normorphine) is reported as “antagonist effect; also recorded: significantly inhibited the agonist effect of normorphine”. For the same compound, the “antagonist effect compared with inhibiting effect of naloxone” value ([1]; inhibition of normorphine agonist effect) was “ten times less effective”, the fluorescence polarization [2] was 0.038 and the absorption maximum ([2]; 10^-5 M solution, phosphate buffer) was 493 nm. For the same compound, the “absorbance A at absorption maximum” value ([2]; 10^-5 M solution, phosphate buffer, 493 nm) was 0.410, the “quantum yield compared to free fluorescein” value ([2]; 10^-9 M) was “about 67%” and the emission maximum [2] was 513 nm. For the same compound, the excitation maximum [2] was 493 nm, the Hill coefficient [3] was 0.671 and the IC50 [3, 7] was 20 nM. For the same compound, the “binding activity for use in detection and quantification of receptor sites” value (shortened to “binding activity for use”) [3] was “sufficient binding activity”, the IC50 [4] was 12 nM and the “site selectivity compared with naloxone (FIG. 1)” value ([4]; percent bound DALE* versus percent bound DHM*, in words) was “show clearly the difference between 6-FN and naloxone with respect to site selectivity”. For the same compound, the IC50 [5] was 17 nM.

With O=C1OC2(c3ccc(O)cc3Oc3cc(O)ccc32)c2ccc(NC(=S)NN=C3CC[C@@]4(O)[C@H]5Cc6ccc(O)c7c6[C@@]4(CCN5CC4CC4)[C@H]3O7)cc21 [6-FNX, 1-(N)-fluoresceinyl naltrexone thiosemicarbazone] the IC50 [3] was 5 nM, the Hill coefficient [3] was 0.675 and the “binding activity for use” value [3] was “sufficient binding activity”.

For CN1CC[C@]23c4c5ccc(O)c4O[C@H]2C(=NNC(=S)Nc2ccc4c(c2)C(=O)OC42c4ccc(O)cc4Oc4cc(O)ccc42)CC[C@@]3(O)[C@H]1C5 [6-FO, 1-(N)-Fluoresceinyl Oxymorphone thiosemicarbazone], the Hill coefficient [3] was 0.989, the IC50 [3, 7] was 20 nM and the “binding activity for use” value [3] was “sufficient binding activity”. The hygroscopicity [6] was “very hygroscopic”.

With C=CCN1CC[C@]23c4c5ccc(O)c4O[C@H]2C(=NNC(=S)Nc2ccc4c(c2)C(=O)OC42c4ccc(N(C)C)cc4Oc4cc(N(C)C)ccc42)CC[C@@]3(O)[C@H]1C5 [6-RN, 1-(N)-tetramethylrhodaminyl-B-naloxone Thiosemicarbazone] the Hill coefficient [3] was 1.09 and the “binding activity for use” value [3] was “sufficient binding activity”.

With O=C1OC2(c3ccc(O)cc3Oc3cc(O)ccc32)c2ccccc21 [free fluorescein, fluorescein, reference compound] the fluorescence polarization [2] was 0.022, the emission maximum [2] was 510-511 nm and the excitation maximum [2] was 493 nm.

For C=CCN1CC[C@]23c4c5ccc(O)c4O[C@H]2C(=O)CC[C@@]3(O)[C@H]1C5 [naloxone, reference compound], the “reversal of 6-FN partial agonist activity by naloxone” value ([1]; 10^-7 M naloxone versus 10^-6 M 6-FN) was “reversible”, the “antagonist effect of naloxone with respect to 6-FN” value ([1]; FIG. 2 legend) was “antagonist effect” and the “persistence of antagonist effect on washing of ileum” value [1] was “similar”.

For Oc1ccc2c3c1O[C@H]1[C@@H](O)C=C[C@H]4[C@@H](C2)NCC[C@@]341 [normorphine, reference compound], the “agonist effect, inhibition of contraction of ileum” value ([1]; normorphine 25 microliters, 10^-7 M) was “agonist effect; also recorded: substantially inhibited contraction of the muscle”.
